From patent publication US20210198204A1, “PRODRUGS OF KALLIKREIN INHIBITORS” (BioCryst Pharmaceuticals, Inc., priority 2016, published 2021)

Assay: Plasma pharmacokinetics of the parent compound after a single oral dose of prodrug
Format: in vivo
Conditions: single oral dose 10 mg/kg, fasted male Sprague Dawley rats; plasma analyzed for the parent compound; study duration 8 h
Method in brief: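 Three male Sprague Dawley rats, housed in metabolic cages and fasted about 15 hours, were weighed and received one oral gavage dose of 10 mg/kg as a solution in water or water/propylene glycol. Blood (approximately 500 μL) went into heparin tubes at set timepoints up to the study duration. Plasma was separated by centrifugation at 14,000 rpm for 3 min at 4° C, stored below −70° C, and assayed for the parent compound.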

Compound	AUC0-last hour (area under the curve)
C=Cc1cc(C(=O)Nc2ccc(C(=N)NC(=O)OC(C)CO)cc2)c(-c2ccc(C(=O)NCC3CC3)nc2C(=O)OC(C)OC(=O)OC(C)C)cc1OC (stereo not drawn) [Compound 95e, 1-((isopropoxycarbonyl)oxy)ethyl 6-((cyclopropylmethyl)carbamoyl)-3-(2-((4-(N-(((1-hydroxypropan-2-yl)oxy)carbonyl)carbamimidoyl)phenyl)carbamoyl)-5-methoxy-4-vinylphenyl)picolinate]	B (B = 1,001-10,000 ng/mL)
C=Cc1cc(C(=O)Nc2ccc(C(=N)NC(=O)OCCN3CCOCC3)cc2)c(-c2ccc(C(=O)NCC3CC3)nc2C(=O)OC(C)OC(=O)[C@@H](N)C(C)C)cc1OC (stereo partly drawn) [Compound 96d, 1-(((S)-2-amino-3-methylbutanoyl)oxy)ethyl 6-((cyclopropylmethyl)carbamoyl)-3-(5-methoxy-2-((4-(N-((2-morpholinoethoxy)carbonyl)carbamimidoyl)phenyl)carbamoyl)-4-vinylphenyl)picolinate]	A (A = 0-1,000 ng/mL)
C=Cc1cc(C(=O)Nc2ccc(C(=N)NC(=O)OC(C)CN)cc2)c(-c2ccc(C(=O)NCC3CC3)nc2C(=O)OC(C)OC(=O)OC(C)C)cc1OC (stereo not drawn) [Compound 97e, 1-((isopropoxycarbonyl)oxy)ethyl 3-(2-((4-(N-(((1-aminopropan-2-yl)oxy)carbonyl)carbamimidoyl)phenyl)carbamoyl)-5-methoxy-4-vinylphenyl)-6-((cyclopropylmethyl)carbamoyl)picolinate]	A (A = 0-1,000 ng/mL)
C=Cc1cc(C(=O)Nc2ccc(C(=N)NC(=O)OC[C@H]3OC[C@H](O)[C@@H]3O)cc2)c(-c2ccc(C(=O)NCC3CC3)nc2C(=O)OC(C)OC(=O)C(C)C)cc1OC (stereo partly drawn) [Compound 98e, 1-(isobutyryloxy)ethyl 6-((cyclopropylmethyl)carbamoyl)-3-(2-((4-(N-((((2R,3S,4S)-3,4-dihydroxytetrahydrofuran-2-yl)methoxy)carbonyl)carbamimidoyl)phenyl)carbamoyl)-5-methoxy-4-vinylphenyl)picolinate]	A (A = 0-1,000 ng/mL)
C=Cc1cc(C(=O)Nc2ccc(C(=N)NC(=O)OC[C@H]3NC[C@H](O)[C@@H]3O)cc2)c(-c2ccc(C(=O)NCC3CC3)nc2C(=O)OC(C)OC(=O)OC(C)C)cc1OC (stereo partly drawn) [Compound 99e, 1-((isopropoxycarbonyl)oxy)ethyl 6-((cyclopropylmethyl)carbamoyl)-3-(2-((4-(N-((((2R,3R,4S)-3,4-dihydroxypyrrolidin-2-yl)methoxy)carbonyl)carbamimidoyl)phenyl)carbamoyl)-5-methoxy-4-vinylphenyl)picolinate]	A (A = 0-1,000 ng/mL)
C=Cc1cc(C(=O)Nc2ccc(C(=N)NC(=O)OCCCCCC)cc2)c(-c2ccc(C(=O)NCC3CC3)nc2C(=O)OC(C)OC(=O)OC(C)CO)cc1OC (stereo not drawn) [Compound 100e, 1-((((1-hydroxypropan-2-yl)oxy)carbonyl)oxy)ethyl 6-((cyclopropylmethyl)carbamoyl)-3-(2-((4-(N-((hexyloxy)carbonyl)carbamimidoyl)phenyl)carbamoyl)-5-methoxy-4-vinylphenyl)picolinate]	B (B = 1,001-10,000 ng/mL)

Next, values leading:

AUC0-last hour (area under the curve)	Compound
A (A = 0-1,000 ng/mL)	C=Cc1cc(C(=O)Nc2ccc(C(=N)NC(=O)OCCOC(=O)[C@@H](N)C(C)C)cc2)c(-c2ccc(C(=O)NCC3CC3)nc2C(=O)OC(C)OC(=O)C(C)C)cc1OC (stereo partly drawn) [Compound 101e, 1-(isobutyryloxy)ethyl 3-(2-((4-(N-((2-(((S)-2-amino-3-methylbutanoyl)oxy)ethoxy)carbonyl)carbamimidoyl)phenyl)carbamoyl)-5-methoxy-4-vinylphenyl)-6-((cyclopropylmethyl)carbamoyl)picolinate]
A (A = 0-1,000 ng/mL)	C=Cc1cc(C(=O)Nc2ccc(C(=N)NC(=O)OCCCCCN)cc2)c(-c2ccc(C(=O)NCC3CC3)nc2C(=O)OC(C)OC(=O)C(C)C)cc1OC (stereo not drawn) [Compound 102d, 1-(isobutyryloxy)ethyl 3-(2-((4-(N-(((5-aminopentyl)oxy)carbonyl)carbamimidoyl)phenyl)carbamoyl)-5-methoxy-4-vinylphenyl)-6-((cyclopropylmethyl)carbamoyl)picolinate]
A (A = 0-1,000 ng/mL)	C=Cc1cc(C(=O)Nc2ccc(C(=N)NC(=O)OC[C@@H]3CCC(=O)N3)cc2)c(-c2ccc(C(=O)NCC3CC3)nc2C(=O)OC(C)OC(=O)C(C)C)cc1OC (stereo partly drawn) [Compound 103c, 1-(isobutyryloxy)ethyl 6-((cyclopropylmethyl)carbamoyl)-3-(5-methoxy-2-((4-(N—((((S)-5-oxopyrrolidin-2-yl)methoxy)carbonyl)carbamimidoyl)phenyl)carbamoyl)-4-vinylphenyl)picolinate]
A (A = 0-1,000 ng/mL)	C=Cc1cc(C(=O)Nc2ccc(C(=N)NC(=O)OC(C)COC(=O)CCCC[C@H]3SCC4NC(=O)NC43)cc2)c(-c2ccc(C(=O)NCC3CC3)nc2C(=O)OC(C)OC(=O)OC(C)C)cc1OC (stereo partly drawn) [Compound 104b, 1-((isopropoxycarbonyl)oxy)ethyl 6-((cyclopropylmethyl)carbamoyl)-3-(5-methoxy-2-((4-(N-(((1-((5-((4R)-2-oxohexahydro-1H-thieno[3,4-d]imidazol-4-yl)pentanoyl)oxy)propan-2-yl)oxy)carbonyl)carbamimidoyl)phenyl)carbamoyl)-4-vinylphenyl)picolinate]
B (B = 1,001-10,000 ng/mL)	C=Cc1cc(C(=O)Nc2ccc(C(=N)NC(=O)OCc3oc(=O)oc3C)cc2)c(-c2ccc(C(=O)NCC3CC3)nc2C(=O)OC(C)OC(=O)C(C)C)cc1OC (stereo not drawn) [Compound 117b, 1-(isobutyryloxy)ethyl 6-((cyclopropylmethyl)carbamoyl)-3-(5-methoxy-2-((4-(N-(((5-methyl-2-oxo-1,3-dioxol-4-yl)methoxy)carbonyl)carbamimidoyl)phenyl)carbamoyl)-4-vinylphenyl)picolinate]
A (A = 0-1,000 ng/mL)	C=Cc1cc(C(=O)Nc2ccc(C(=N)NC(=O)OCc3oc(=O)oc3C)cc2)c(-c2ccc(C(=O)NCC3CC3)nc2C(=O)OCOC(=O)[C@@H](N)C(C)C)cc1OC [Compound 118c, (S)-((2-amino-3-methylbutanoyl)oxy)methyl 6-((cyclopropylmethyl)carbamoyl)-3-(5-methoxy-2-((4-(N-(((5-methyl-2-oxo-1,3-dioxol-4-yl)methoxy)carbonyl)carbamimidoyl)phenyl)carbamoyl)-4-vinylphenyl)picolinate]
